By IC50 is commonly meant the concentration needed to halve the response being measured. By inhibition in vivo is commonly meant the share of the control response that was lost under treatment. The low end stands for little suppression, the high end for strong suppression.

Where two headings read alike, the source gives them in different places.

Experiment [1] addresses T1, human 5-lipoxygenase enzyme (Homo sapiens, UniProt P09917).
T1 construct: endogenous in cells; host or cells: human whole blood (leukocytes) stimulated with A23187
T1 sequence (P09917 1-674): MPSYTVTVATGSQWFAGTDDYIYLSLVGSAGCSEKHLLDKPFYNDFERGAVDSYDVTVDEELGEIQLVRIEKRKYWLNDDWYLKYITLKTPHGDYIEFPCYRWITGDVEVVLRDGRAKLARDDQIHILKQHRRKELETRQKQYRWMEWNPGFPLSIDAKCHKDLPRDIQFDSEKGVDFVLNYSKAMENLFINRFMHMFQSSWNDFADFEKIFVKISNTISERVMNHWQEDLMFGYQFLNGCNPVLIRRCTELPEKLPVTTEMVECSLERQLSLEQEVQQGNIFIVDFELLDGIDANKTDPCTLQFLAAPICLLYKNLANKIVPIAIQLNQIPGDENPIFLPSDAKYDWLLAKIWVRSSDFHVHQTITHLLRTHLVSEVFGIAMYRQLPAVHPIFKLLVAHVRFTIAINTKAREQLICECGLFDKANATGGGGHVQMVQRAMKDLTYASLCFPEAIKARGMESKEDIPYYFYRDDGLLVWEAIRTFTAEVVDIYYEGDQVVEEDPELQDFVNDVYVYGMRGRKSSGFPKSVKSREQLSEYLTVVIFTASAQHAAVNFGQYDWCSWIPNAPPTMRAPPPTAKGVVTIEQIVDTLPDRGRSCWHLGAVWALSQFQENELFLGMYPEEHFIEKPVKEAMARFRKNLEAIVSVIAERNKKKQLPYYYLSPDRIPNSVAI
The experiment is described as follows: Inhibition of LTB4 production in human whole blood. In kind it is cell-based. As to the method:
This assay examines the ability of a compound to inhibit leukotriene B4 production from human blood stimulated with calcium ionophore. As this production of leukotriene B4 is mediated via the activation of the 5-lipoxygenase enzyme, this assay is predictive of a compound's ability to inhibit the human 5-lipoxygenase enzyme.
The procedure for the assay is as follows. Blood is drawn from normal human volunteers into tubes containing heparin. 1 ml of the heparinized blood is pipetted into a 1.5 ml polypropylene tube. To this sample is added either different concentrations of the test compound (5 μl) dissolved in DMSO or 5 μl of DMSO as a vehicle control. These samples are incubated in a water bath, at 37° C. for 15 min. 5 μl of the calcium ionophore A23187 (at a final concentration of 50 μM) is then added to each sample, which is vortexed and placed back in the water bath for 30 min. The samples are then centrifuged at 2500 rpm for 10 min. at 4° C. 50 μl of the supernatant is transferred into pre-cooled Eppendorf tubes containing 950 μl of enzyme immunoassay (EIA) buffer. A commercially available EIA kit (Cayman Chemical Co., Ann Arbor, Mich., USA) is used to subsequently measure the LTB4 production in the samples. The LTB4 levels produced in the vehicle control sample is then compared to those in which the test compound has been added. From this a percent inhibition of LTB4 production by each concentration of test compound is calculated and the IC50 for inhibition of LTB4 production for each test compound is determined.

Experiment [2] concerns 5-lipoxygenase. Put plainly: 5-Lipoxygenase inhibitory activity in vivo. The settings on record: guinea pig, oral, 2 mg/kg. As to the method: Male, Hartley guinea pigs are obtained from Charles River Labs at a body weight of 350-400 grams. Compounds are prepared at a volume of [1-2 mg/ml] in 1% methocellulose for oral dosing. Animals are separated into groups of five (5). Each assay includes a control group dosed with vehicle. Each group of animals is dosed with either vehicle or compound by oral gavage. Animals are allowed to rest for one, three, or six hours after dosing. Control animals are allowed to rest for three hours. At the appropriate times, the animals are anesthetized with Urethane at 1.5 g/kg, ip. Blood is drawn into a heparinized syringe via cardiac puncture. Blood (0.5 ml) is aliquoted into separately-labeled 1.5 ml eppendorf tubes. Each sample is loaded with 5 μl of [15 mM] Arachidonic Acid, and placed in a 37° C. water bath for five minutes. After five minutes, the blood is stimulated with 5 μl of [5 mM] A23187 (Calcium Ionophore) and retained in the water bath for an additional 30 minutes. After the thirty minutes, the blood samples are removed from the water bath and centrifuged at 14,000 rpm for 2 minutes. Plasma is diluted to EIA buffer and an EIA is performed following manufacturer instructions (Cayman Chemical Co., Ann Arbor, Mich., USA). The results (Table 3) show the percent inhibition of 5-lipoxygenase by selected compounds at multiple time points post oral dosing. 50% inhibition or greater is considered significant.

For experiment [3], the target named is T2, 15-lipoxygenase (Oryctolagus cuniculus, UniProt P12530).
T2 construct: from tissue; host or cells: rabbit peritoneal polymorphonuclear leukocytes
T2 sequence (P12530 1-663): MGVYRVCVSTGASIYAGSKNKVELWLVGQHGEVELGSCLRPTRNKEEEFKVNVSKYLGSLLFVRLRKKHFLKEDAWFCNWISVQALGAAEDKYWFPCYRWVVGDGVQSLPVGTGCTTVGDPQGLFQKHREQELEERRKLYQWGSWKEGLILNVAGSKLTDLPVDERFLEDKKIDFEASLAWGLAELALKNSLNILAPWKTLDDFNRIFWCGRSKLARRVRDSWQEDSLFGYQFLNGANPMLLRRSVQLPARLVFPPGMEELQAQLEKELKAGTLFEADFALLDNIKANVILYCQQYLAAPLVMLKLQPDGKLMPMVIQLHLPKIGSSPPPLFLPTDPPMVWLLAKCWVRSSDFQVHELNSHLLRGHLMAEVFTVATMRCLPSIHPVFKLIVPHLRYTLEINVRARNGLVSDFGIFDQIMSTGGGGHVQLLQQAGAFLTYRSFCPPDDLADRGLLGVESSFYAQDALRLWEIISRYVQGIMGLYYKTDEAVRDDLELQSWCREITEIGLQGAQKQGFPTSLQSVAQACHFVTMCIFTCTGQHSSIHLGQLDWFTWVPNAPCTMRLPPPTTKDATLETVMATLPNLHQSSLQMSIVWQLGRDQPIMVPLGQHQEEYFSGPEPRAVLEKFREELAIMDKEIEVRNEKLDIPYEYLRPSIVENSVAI
Put plainly: Inhibition of 15-lipoxygenase (15-HETE production). The settings on record: 15-lipoxygenase from rabbit peritoneal polymorphonuclear leukocytes, 5 min at 37° C. In kind it is biochemical. The text has this:
This assay examines the ability of a compound to inhibit production of 15-hydroxy-5, 8, 11, 13-eicosatetraenoic acid (15-HETE) via the action of 15-lipoxygenase on arachidonic acid. 15-lipoxygenase was purified from rabbit peritoneal polymorphonuclear leukocytes. The enzyme is responsible for the conversion of arachidonic acid (via oxygenation at carbon 15 of arachidonic acid) to 15-hydroperoxy-5, 8, 11, 13-eicosatetraenoic acid (15-HPETE), which then reduced to 15-hydroxy-5, 8, 11, 13-eicosatetraenoic acid (15-HETE).
The procedure for the assay is as follows. Arachidonic acid is co-incubated with […] for 5 min at 37° C. in the presence or absence of different concentrations of test compound (10^−8 to 10^−5 M). Production of 15-HETE in each sample is then measured by radioimmunoassay. The 15-HETE levels produced in the vehicle control sample are then compared to those in which the test compound has been added.

For experiment [4], the system named is histamine-induced bronchoconstriction. Put plainly: Antihistaminergic activity in vivo (histamine-induced bronchoconstriction). The settings on record: guinea pig, oral, 2 mg/kg; for inhibition in vivo at 2 mg/kg: Cavia porcellus. As to the method:
Male, Hartley guinea pigs are obtained from Charles River Labs at a body weight of 350 -400 grams. Inhibition of histamine activity is measured by the method of Konzett and Rössler (Naonyn-Schmiedebergs Arch. Exp. Path. Pharmakol. 195, 71-74 (1940). Anaethetized guinea pigs are subjected to artificial ventilation. The endotracheal pressure is recorded. Bronchoconstriction is induced by successive intravenous injections of histamine. The test compounds are administered orally in a 1% methocellulose suspension at set timepoints prior to the administration of histamine.
The results (Table 2) show the percent inhibition of histamine-induced bronchoconstriction by selected compounds at multiple time points post oral dosing. 50% inhibition or greater is considered significant.

Experiment [5] addresses T3, human cloned H1 receptor (Homo sapiens, UniProt P35367).
T3 construct: expressed in transfected cells; host or cells: CHO-K1
The experiment is described as follows: CHO-K1 H1R binding assay. Particulars: 3H-pyrilamine 2 nM, CHO-K1 membranes, 3 hours at 37° C.; read-out: CHOH1 K1.
Procedure: CHO-K1 cells expressing the human cloned H1 receptor are grown to confluence in tissue culture dishes. Cells are harvested using D-PBS buffer (JRH Biosciences), kept at 4° C., centrifuging to pellet cells (4° C., 500 g, 10 min). The final cell pellet is homogenized and resuspended using Tris/sucrose buffer (20 mM Tris, 250 mM sucrose, pH 7.4 at 4° C.). Aliquots of the membrane preparation are stored at −70° C.
On the day of assay, the membrane preparation is thawed and centrifuged (TLA100.3 rotor, 4° C., 15 min, 23,000 rpm). The pellet is resuspended in Tris/sucrose buffer initially and then diluted further as necessary using assay buffer A (50 mM Na/KPO4, 2 mM MgCl2, 0.5% (w/v) BSA, pH 7.5).
For the binding assay, the membrane preparation, test compound and ^3H-pyrilamine (2 nM final) in buffer A with 1% (v/v) DMSO final are incubated in a 96-well polypropylene plate for 3 hours at 37° C. Non-specific binding is determined in the presence of 10 μM pyrilamine. A 96-well harvester (Packard) is used to harvest the 96-well plate onto a GF/B filter plate pre-treated with 0.1% (v/v) PEI. The plate is counted in a Packard Topcounter after adding Microscint 20 (Packard) scintillation fluid. The Ki for each compound at the histamine H1 receptor is then calculated from these counts.

[6] abbreviates: human whole blood, calcium ionophore A23187 50 μM, LTB4 by EIA, read-out: HWB IC50.

T3 sequence (P35367 whole entry): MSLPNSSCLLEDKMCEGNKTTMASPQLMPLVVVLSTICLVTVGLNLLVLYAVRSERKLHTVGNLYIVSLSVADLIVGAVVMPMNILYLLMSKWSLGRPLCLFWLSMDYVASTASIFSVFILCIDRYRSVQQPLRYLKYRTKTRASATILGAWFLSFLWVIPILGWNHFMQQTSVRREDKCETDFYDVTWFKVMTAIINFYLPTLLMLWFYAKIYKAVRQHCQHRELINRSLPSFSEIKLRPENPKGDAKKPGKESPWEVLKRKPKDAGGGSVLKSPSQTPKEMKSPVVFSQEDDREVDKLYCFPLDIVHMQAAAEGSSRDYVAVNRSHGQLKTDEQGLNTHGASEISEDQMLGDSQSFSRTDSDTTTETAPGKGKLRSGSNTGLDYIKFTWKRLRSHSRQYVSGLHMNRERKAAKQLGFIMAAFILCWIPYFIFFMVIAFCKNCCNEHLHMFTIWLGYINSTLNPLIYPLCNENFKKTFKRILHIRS

As for `NC(=O)c1cc(C#CCCN(O)C(N)=O)ccc1OCCN1CCN([C@H](c2ccccc2)c2ccc(Cl)cc2)CC1` [Compound 35, 2-(2-{4-[(1R) (4-chlorophenyl)phenyl-methyl]piperazinyl}ethoxy)-5-[4-(amino-hydroxycarbonylamino)but-1-ynyl]benzamide], the IC50 in experiment [1] (setting [6]) is 85 nM; in experiment [3], 46 nM. For the same molecule, the “% inhibition of 5-lipoxygenase” value in experiment [2] (1 hour) was found to be 87%; in experiment [2] (3 hours), 97%. For the same molecule, the inhibition in vivo at 2 mg/kg was found to be 72% in experiment [4] (3 hrs) and 88% in experiment [4] (6 hrs). Moreover, in experiment [5], the Ki came to 135 nM.
In experiment [1], `NC(=O)N(O)CCC#Cc1ccc(CN2CCN(C(c3ccc(F)cc3)c3ccc(F)cc3)CC2)o1` [Compound 34, amino-N-{4-[5-({4-[bis (4-fluorophenyl)methyl]piperazinyl}methyl) (2-furyl)]but-3-ynyl}-N-hydroxyamide] gave an IC50 of 142 nM. Moreover, the “% inhibition of 5-lipoxygenase” value in experiment [2] (3 hours) is 38%. Further, the values for the inhibition in vivo at 2 mg/kg in experiment [4] (3 hrs) and in experiment [4] (6 hrs) were 81% and 89%, respectively. Moreover, the Ki in experiment [5] worked out at 550 nM.
Consider `NC(=O)N(O)CCC#Cc1ccc(OCCCCN2CCN(C(c3ccc(F)cc3)c3ccc(F)cc3)CC2)cc1` [Compound 80, amino-N-{4-[4-(4-{4-[bis(4-fluorophenyl)methyl]piperazinyl}butoxy)phenyl]but-3-ynyl}-N-hydroxyamide], for which the IC50 was determined as 78 nM in experiment [1] (setting [6]) and 110 nM in experiment [3]. Also, the “% inhibition of 5-lipoxygenase” value in experiment [2] (3 hours) is listed as 73%; in experiment [2] (6 hours) it was 88%. Further, in experiment [4] (3 hrs), the inhibition in vivo at 2 mg/kg was found to be 98%.
For the molecule `NC(=O)N(O)CCC#Cc1cccc(OCCN2CCN([C@H](c3ccccc3)c3ccc(Cl)cc3)CC2)c1` [Compound 23, N-{4-[3-(2-{4-[(1R)(4-chlorophenyl)phenylmethyl]piperazinyl}ethoxy)phenyl]but-3-ynyl}amino-N-hydroxyamide], the IC50 in experiment [1] (setting [6]) was 287 nM. For the same molecule, the “% inhibition of 5-lipoxygenase” value in experiment [2] (1 hour) was found to be 80%. Moreover, the inhibition in vivo at 2 mg/kg in experiment [4] (3 hrs) was determined as 80%; in experiment [4] (6 hrs), 92%. In experiment [5], the Ki came out at 10 nM.
Take `NC(=O)N(O)CCC#Cc1ccc(OCCN2CCN(C(c3ccc(F)cc3)c3ccc(F)cc3)CC2)cc1[N+](=O)[O-]` [Compound 87, N-{4-[4-(2-{4-[bis(4-fluorophenyl)methyl]-1-piperazinyl}ethoxy)-2-nitrophenyl]-3-butynyl)-N-hydroxyurea]: the IC50 in experiment [1] (setting [6]) stood at 251 nM. Further, the “% inhibition of 5-lipoxygenase” value in experiment [2] (1 hour) was determined as 70%; in experiment [2] (6 hours) it was 94%. For the same molecule, the inhibition in vivo at 2 mg/kg stood at 66% in experiment [4] (3 hrs) and 73% in experiment [4] (6 hrs). For the same molecule, the Ki in experiment [5] is 58 nM.
Consider `NC(=O)N(O)CCC#Cc1ccc(OCCCN2CCN([C@H](c3ccccc3)c3ccc(Cl)cc3)CC2)cc1` [Compound 52, N-{4-[4-(3-{4-[(1R)(4-chlorophenyl)phenyl-methyl]piperazinyt}propoxy)phenyl]but-3-ynyl}amino-N-hydroxyamide], for which the concentration for half-maximal inhibition (IC50) came to 105 nM in experiment [1] (setting [6]) and 61 nM in experiment [3]. For the same molecule, the “% inhibition of 5-lipoxygenase” value in experiment [2] (3 hours) worked out at 61%. The inhibition in vivo at 2 mg/kg in experiment [4] (3 hrs) was determined as 69%.
As to `NC(=O)N(O)CCCCc1ccc(OCCN2CCN([C@H](c3ccccc3)c3ccc(Cl)cc3)CC2)cc1` [Compound 17, N-{4-[4-(2-{4-[(1R) (4-chlorophenyl)phenyl-methyl]piperazinyl}ethoxy)phenyl]butyl} amino-N-hydroxyamide], in experiment [1] (setting [6]), the IC50 is 254 nM. Besides, the results for the “% inhibition of 5-lipoxygenase” value in experiment [2] (3 hours) and in experiment [2] (6 hours) were 70% and 94%, respectively. In addition, the inhibition in vivo at 2 mg/kg came to 66% in experiment [4] (3 hrs) and 73% in experiment [4] (6 hrs). In addition, in experiment [5], the Ki came out at 15 nM.
In the case of `NC(=O)N(O)CCC#Cc1ccc(CN2CCN([C@H](c3ccccc3)c3ccc(Cl)cc3)CC2)o1` [Compound 27, N-{4-[5-({4-[(1R) (4-chlorophenyl)phenylmethyl]piperazinyl}methyl)(2-furyl)]but-3-ynyl}amino-N-hydroxyamide], in experiment [1] (setting [6]), the IC50 worked out at 650 nM. Moreover, the “% inhibition of 5-lipoxygenase” value in experiment [2] (1 hour) was 88%. Moreover, the inhibition in vivo at 2 mg/kg in experiment [4] (3 hrs) was found to be 86%. In experiment [4] (6 hrs), at 2 mg/kg the inhibition in vivo was 91% and the “% inhibition of histamine-induced bronchoconstriction” value was 91%. For the same molecule, in experiment [5], the Ki came to 150 nM.
Turning to `NC(=O)N(O)CCC#Cc1ccc(OCCN2CCC(=C3c4ccc(Cl)cc4CCc4cccnc43)CC2)cc1` [Compound 32], the IC50 in experiment [1] (setting [6]) stood at 263 nM; in experiment [3] it was 170 nM. Besides, the “% inhibition of 5-lipoxygenase” value in experiment [2] (1 hour) is 88%. The same molecule displayed an inhibition in vivo at 2 mg/kg in experiment [4] (3 hrs) of 65%.

For the origin of these results see US6451801B1, “Compounds and methods for treatment of asthma, allergy and inflammatory disorders” (UCB, S.A., priority 1999, dated 2002).
